Data on 16 compounds can be found in patent US8211445B2, “PSM peptides as vaccine targets against methicillin-resistant Staphylococcus” (The United States of America, as represented by the …, priority 2007, dated 2012).

The test system of test [1] is human neutrophils. The test is described as follows: Priming of human neutrophils (surface expression of CD11b and gp91phox). The format is cell-based. Further details: key to CD11b: x: reduced activity; xx: strongly reduced activity. The conditions noted are these: for CD11b: surface expression of CD11b on human neutrophils, relative to wild type PSMα3; for ability to increase CD11b expression: compared with wild type PSMα3. As to the method:
(§1) Priming of PMNs by synthetic PSMs was determined by increased surface expression of CD11b and gp91phox (granule exocytosis). PMNs were incubated with 10-10,000 ng/ml PSM, 10 μM fMLP, 10 ng/ml lipopolysaccharide, or 10 μg/ml lipoteichoic acid in 96-well tissue culture plates at 37° C. with rotation for 60 minutes. The assay was terminated by centrifuging cells at 4° C. for 8 minutes at 350×g. Cells were washed twice in cold Dulbecco's phosphate-buffered saline and stained with and isotype control antibody (BD Biosciences) or those specific for CD11b (mAb 44, BD Biosciences) or gp91phox (mAb 7D533). Propidium iodide (0.5 μg/ml) was used to identify dead cells. PMNs were analyzed on a FACSCalibur flow cytometer (Becton Dickinson) and dead cells were excluded with a single gate. Percent positive neutrophils were determined with a marker defined by the boundary of the isotype-matched control antibody.
as §1, with “10-10000” for “10-10,000”, “7D5).” for “7D533).”
(§2) Human neutrophil assays: Human neutrophil isolation, chemotaxis, calcium ion flux, priming, lysis assays, and measurement of IL-8 production were performed as described in Example 2.

In test [2] the test system is human neutrophils. The test is described as follows: Lysis of human neutrophils (release of lactate dehydrogenase). The conditions noted are these: for Neutrophil lysis: pro-inflammatory activity of PSMα3 mutants, relative to wild type PSMα3; for ability to promote neutrophil lysis: compared with wild type PSMα3. The format is cell-based. Set-up: key to Neutrophil lysis: x: reduced activity; xx: strongly reduced activity. How it is done: (§3) Lysis of PMNs by synthetic PSMs or clarified S. aureus culture media was determined essentially as described (Voyich et al., J Infect Dis 194, 1761-70, 2006; Voyich et al., J Immunol 175, 3907-19, 2005). Synthetic PSMs (1 or 10 μg/ml) were added to wells of a 96-well tissue culture plate containing 10^6 PMNs and plates were incubated at 37° C. for up to 3 hours. At the desired times, PMN lysis was determined by release of lactate dehydrogenase (LDH; Cytotoxicity Detection Kit, Roche Applied Sciences). Alternatively, wild-type and isogenic mutant S. aureus strains were cultured for 18 hours at 37° C. in 50 ml TSB with shaking using a 100 ml flask. Bacteria were removed by centrifugation and culture media were sterilized by filtration and stored at −80° C. in aliquots until used. Culture medium was diluted 1:10 in RPMI/H, mixed with human PMNs (10^6) and tested for its ability to cause PMN lysis.
as §3, with “above in Example 2.” for “(Voyich et al., J Infect Dis 194, 1761-70, 2006; Voyich et al., J Immunol 175, 3907-19, 2005).”
as §2

A further test has as its system human PMN. The test is described as follows: Measurement of cytokine production by human PMN (ELISA). The format is cell-based. Further details: key to IL-8: x: reduced activity; xx: strongly reduced activity. The conditions noted are these: for IL-8: secretion of IL-8 by human neutrophils, relative to wild type PSMα3; for IL-8 secretion: compared with wild type PSMα3. How it is done: After isolation and washing, PMN or PBMC were resuspended in RPMI 1640 medium (Sigma) supplemented with 10% human serum, 2 mM L-glutamine, 100 U/ml penicillin, 100 μg/ml streptomycin, 2 mM sodium pyruvate, and 10 mM HEPES. Cells were distributed to a 96-well culture plate at 200 μl and 5×10^5 cells per well. Synthetic PSM peptides or filtered bacterial culture supernatants were diluted in fresh culture medium and added to the plate at 100 μl/well. Plates were incubated at 37° C. in a 5.5% CO2 incubator for 5 hours. Then, the plate was centrifuged at 1500 rpm for 10 minutes, and supernatant was harvested from each well. Mono Mac 6 cells were obtained from DSMZ (Germany), and were grown in RPMI 1640 plus 10% heat inactivated fetal bovine serum (HyClone), 2 mM L-glutamine, 10.0 units/ml penicillin, 10.0 μg/ml streptomycin, 0.2× non-essential amino acid solution, and OPI medium supplement (Sigma). Cells were grown in T75 culture flasks in a 37° C. CO2 incubator and harvested by centrifugation. After removal of supernatant, cells were resuspended in fresh culture medium, counted, and distributed into a 96-well cell culture plate at 100 μl and 2.5×10^5 cells per well. Phorbol 12-myristate 13-acetate (Sigma) was added to a final concentration of 2.5 ng/ml for cell pre-stimulation. The plate was incubated in a 37° C. CO2 incubator for 3 hours. At the end of the pre-stimulation period, synthetic PSM peptides were diluted in culture medium and added to the cells at 100 μl/well. Cells were incubated in a 37° C. CO2 incubator for 20-22 hours, and the plate was centrifuged at 1500 rpm for 10 minutes. Human TNF-α, IL-1β, IL-8, and mouse TNF-α were measured in the culture supernatants with commercial ELISA assay kits (R&D systems) according to the manufacturer's instructions.
as §2
In general terms: In an ELISA, binding on a coated surface is turned into a signal by an enzyme label.

The subject of a further test is MRSA strains. The following applies: cited from earlier work.
Test [3] can be described thus: Immunization of mice with synthetic PSM peptides, PSM-specific antibodies by ELISA. The format is in vivo, mice (BALB/c). The conditions noted are these: 50 μg s.c. with CFA, booster with IFA. As to the method:
In order to determine the immunogenicity of synthetic PSM peptides, mice (BALB/c, female, 6-8 weeks) were injected subcutaneously with 50 μg (100 μL) of each PSM peptide in sterile PBS emulsified with complete Freund's adjuvant (CFA) for primary immunization. A booster injection containing incomplete Freund's adjuvant (IFA) instead of CFA was given to the animals 14 days after the primary immunization. The control group of animals received injections of sterile PBS and adjuvants only. Three blood withdrawals were performed on each mouse. The first two blood samples were collected via retro-orbital route immediately before primary injection and before booster injection, respectively. All animals were sacrificed 21 days after booster injection for the terminal blood samples.
PSM-specific antibodies in mouse serum were determined by ELISA assays. Microtiter plates (Nunc 96-well flat-bottom MaxiSorp plates) were coated with 20 μg/ml of each synthetic PSM peptides in PBS plus 0.05% NaN3, and incubated overnight at 4° C. The plates were washed with PBS containing 0.05% Tween-20, and blocked for 1 hour at room temperature with 1% BSA (Sigma) and 0.05% NaN3 in PBS. Serum samples were diluted in assay diluent (Tris-buffered saline containing 0.1% BSA and 0.05% Tween-20, pH 7.2), and added to the washed wells at 100 μl/well for an incubation of 2 hours at room temperature. Plates were washed again and HRP-labeled goat anti-mouse IgG (R&D Systems) and goat anti-mouse IgM (Jackson ImmunoResearch Laboratory) were diluted in assay diluent and added to the plates at 100 μl/well for an incubation of 1 hour at room temperature in order to detect PSM specific mouse IgG and IgM, respectively. Plates were washed again and a substrate solution containing equal volume of Tetramethylbenzidine and H2O2 was added to the plates at 100 μl/well for color development. The reaction was terminated by adding 50 μl of 1 M H2SO4 to each well, and optical density (O.D.) was measured at 450 nm using an ELISA plate reader.

Where [4] appears, read: non N-formylated synthetic PSM peptides, BALB/c mice (FIG. 12).
Where [5] appears, read: N-formylated synthetic PSM peptides, BALB/c mice (FIG. 11).

No end group written: not given here. *: point of attachment. For = O=C* Bounds are passed on as bounds.

With “fMEFVAKLFKFFADLLGKFLGNN (For-MEFVAKLFKFFADLLGKFLGNN; listed as Staphylococcus aureus) [#10]”, the CD11b entry in the test with human neutrophils [1] is given as “xx”. In addition, the Neutrophil lysis entry in the test on human neutrophils [2] is reported as “x”. Besides, the IL-8 entry with human PMN was “xx”.

fMEFVAKLFKFFKDLLGAFLGNN [#15]: in the test on human neutrophils [2], the Neutrophil lysis entry is on record as “xx”. Besides, the IL-8 result in the test with human PMN is “xx”.

Take fMEFVAKLFKFFKDLLGKFLGAN [#19]: in the test with human neutrophils [1], the “ability to increase CD11b expression” value was “greatest reduction” and the CD11b result is recorded as “xx”. In the test on human neutrophils [2], the “ability to promote neutrophil lysis” value is “greatest reduction” and the Neutrophil lysis result is given as “xx”. Moreover, in the test with human PMN, the IL-8 secretion entry was “greatest reduction” and the IL-8 entry is on record as “xx”.

Turning to “fMEFAAKLFKFFKDLLGKFLGNN (For-MEFAAKLFKFFKDLLGKFLGNN; listed as Staphylococcus aureus) [#3]”, the IL-8 result with human PMN is recorded as “xx”.

Turning to “MEFVAKLFKFFKDLLGKFLGNN [PSMα3, no formyl]”, in the test on human neutrophils [1], the “ability to increase CD11b expression” value is reported as “strongly reduced ability” and the CD11b result was “xx”. In addition, in the test with human neutrophils [2], the “ability to promote neutrophil lysis” value is given as “reduced ability” and the Neutrophil lysis entry is recorded as “x”. For the same compound, in the test on human PMN, the IL-8 secretion result was “strongly reduced ability” and the IL-8 result is on record as “xx”.

Take fMEFVAKLFAFFKDLLGKFLGNN [#7]: the IL-8 entry in the test on human PMN is “xx”.

Consider fMEFVAKLFKFFKALLGKFLGNN [#11], for which the IL-8 result in the test with human PMN is “xx”.

Take fMEFVAKLFKFFKDLLAKFLGNN [#14]: the IL-8 entry in the test with human PMN is “xx”.

On to `CN[C@H](CC(C)C)C(=O)N[C@H]1C(=O)N[C@@H](CC(N)=O)C(=O)N[C@H]2C(=O)N[C@H]3C(=O)N[C@H](C(=O)N[C@H](C(=O)O)c4cc(O)cc(O)c4-c4cc3ccc4O)[C@H](O)c3ccc(c(Cl)c3)Oc3cc2cc(c3O[C@@H]2O[C@H](CO)[C@@H](O)[C@H](O)[C@H]2O[C@H]2C[C@](C)(N)[C@H](O)[C@H](C)O2)Oc2ccc(cc2Cl)[C@H]1O` [vancomycin], for which the “minimum inhibitory concentration [MIC]” value with MRSA strains (MRSA strains with decreased susceptibility to vancomycin) was 8 to 16 µg/mL. The MIC (in general, the smallest concentration in the dilution series that meets the test's criterion for growth inhibition) in the test on MRSA strains (strains fully resistant to vancomycin) is at least 32 µg/mL.

With fMAFVAKLFKFFKDLLGKFLGNN [#1], the CD11b result in the test with human neutrophils [1] is listed as “x”. Further, the Neutrophil lysis entry with human neutrophils [2] is “xx”.

As to “fMEFVAALFKFFKDLLGKFLGNN (For-MEFVAALFKFFKDLLGKFLGNN; listed as Staphylococcus aureus) [#4]”, the Neutrophil lysis entry in the test with human neutrophils [2] is given as “xx”. In addition, in the test with human PMN, the IL-8 result is reported as “xx”.

Turning to “MEGLFNAIKDTVTAAINNDGAKLGTSIVSIVENGVGLLGKLFGF (S. aureus) [PSMβ1]”, the “specific antibody production in vivo” value in test [3] (setting [4]) was “strongest response”.

Turning to “MGIIAGIIKVIKSLIEQFTGK (S. aureus) [PSMα1]”, the “specific antibody production in vivo” value in test [3] (setting [5]) is on record as “most robust antibody production”; in test [3] (setting [4]), “strongest response”.

Regarding MAIVGTIIKIIKAIIDIFAK [PSMα4], the “specific antibody production in vivo” value in test [3] (setting [5]) is on record as “most robust antibody production”.

With “fMEFVAKAFKFFKDLLGKFLGNN (For-MEFVAKAFKFFKDLLGKFLGNN; listed as Staphylococcus aureus) [#5]”, the Neutrophil lysis result in the test with human neutrophils [2] is recorded as “xx”.

As for fMEFVAKLFKFFKDLLGKFLGNA [#20], the CD11b result in the test on human neutrophils [1] is given as “x”. In addition, the Neutrophil lysis result in the test with human neutrophils [2] is recorded as “x”. The IL-8 entry in the test with human PMN is “xx”.
